Data on 8 compounds can be found in patent US20230255881A1, “METHOD OF RAPIDLY ACHIEVING THERAPEUTIC CONCENTRATIONS OF TRIPTANS FOR TREATMENT OF MIGRAINES AND CLUSTER HEADACHES” (Emergex USA Corporation, priority 2017, published 2023).

Structures are written as SMILES. ≈ marks a conversion by molar mass, not a printed value. Like-named read-outs stand apart in the source and are kept apart here.

Series [1] in a line: clinical. To be noted: human, in vivo. The method, then: The final treatment administered was 3.8 mg on a 10 cm^2 patch using an applicator with 0.52 Joule of application energy in the intracutaneous microneedle system described herein. The products tested were:
(§1) The array was applied to the center of a 5 cm^2 tan adhesive backing to form the patch. The patch was attached to the interior of a white to off-white polycarbonate ring co-molded with a desiccant, and this patch assembly was packaged in a foil pouch.
as §1
The array was applied to the center of a 10 cm^2 tan adhesive backing to form the patch. The patch was attached to the interior of a white to off-white polycarbonate ring co-molded with a desiccant, and this patch assembly was packaged in a foil pouch.
This was a single-center, open-label, randomized five-way crossover study (Part 1) followed by a sequential study of two additional treatments (Parts 2 and 3). After obtaining informed consent and establishing eligibility, each subject received each of the seven study treatments once, followed by in-clinic monitoring and extensive blood sample collection for pharmacokinetic analysis. […] Plasma samples from the initial dosing days were sent to the analytical laboratory for analysis, and tolerability for each of the dose levels was summarized. […] During Part 3, subjects received a single 3.8 mg patch (applied with a 0.52 J applicator) and also completed identical procedures to the previous dosing days. After completion of the seven dosing days, subjects were assessed one final time and dismissed from the study.
Twenty subjects were enrolled in the study, 10 males and 10 females. The subjects mean age was 29 years±3.5 years with a mean BMI of 24.4±3.5.
PK parameters were summarized by treatment group using descriptive statistics (arithmetic means, standard deviations, coefficients of variation, sample size, minimum, maximum, and median).
Graphs of apparent dose linearity and proportionality of PK parameters (AUCt, AUCinf and Cmax) were compiled.

The conditions of series [2]: cited from earlier work; for AUC0-last: Seaber1997.
Series [3] can be described thus: In vivo pig study: zolmitriptan distribution in skin by quantitative mass-spectrometry imaging. Particulars: swine skin after 1-hour ADAM wear. The source says: Evidence of zolmitriptan diffusion within the skin was obtained by quantitative mass-specetrometry imaging. Analyses of the surface area of the stratum corneum, epidermis, and dermis indicate that the largest amount of zolmitriptan localized to the dermis.

Series [4] in a line: Solubility of zolmitriptan in 0.1 M acids at 2-8° C. The series is classed as physicochemical. Particulars: de-ionized water. From the text: The suspension was then centrifuged.
The subject of series [5] is 5HT1B/1D. To be noted: relative to zolmitriptan; cited from earlier work.

For the compound `CNS(=O)(=O)Cc1ccc2[nH]cc(CCN(C)C)c2c1` [Sumatriptan SC], the t1/2 in series [1] (sc) was 1.14 H.

In series [1] (po, 2.5 mg), `CN(C)CCc1c[nH]c2ccc(C[C@H]3COC(=O)N3)cc12` [Oral Zolmi] had an AUC0-last Dose of 8.6 ng·h/mL/mg.

`CNS(=O)(=O)Cc1ccc2[nH]cc(CCN(C)C)c2c1` [SC Suma] registered an AUC0-last Dose in series [1] (sc, 6 mg) of 16.8 ng·h/mL/mg.

As a reminder, the Tmax is the time from dosing to the highest level. Turning to `CNS(=O)(=O)Cc1ccc2[nH]cc(CCN(C)C)c2c1` [Sumatriptan], the Tmax entry in series [2] (marketed dosage form) is “about 2 hours”. Besides, the bioavailability entry in series [2] (oral administration) is “about 15%”.

By Cmax is commonly meant the peak of the concentration-time curve. What is called AUC(0-t) is the area under the concentration-time curve up to a stated or last time point. The low end stands for less exposure, the high end for more exposure. `CN(C)CCc1c[nH]c2ccc(C[C@H]3COC(=O)N3)cc12` [Zolmitriptan oral tablet]: in series [1] (both, po, 2.5 mg), the AUCinf stood at 27.19 ng · H/mL, the Cmax came to 3.77 ng/mL and the Tmax was 1.79 h. In series [1] (both, po, 2.5 mg, AUC2 hrs), this compound showed an AUC(0-t) of 4.72 ng·h/mL. In series [1] (both, po, 2.5 mg, AUCt), the AUC(0-t) was found to be 22.2 ng·h/mL.

A word on the Solubility: it is how much of the substance goes into solution per volume. A low value points to little dissolved substance. As for `CN(C)CCc1c[nH]c2ccc(C[C@H]3COC(=O)N3)cc12` [Zolmitriptan, zolmitriptan], the results for the “Percentage of Total Zolmitriptan” value in series [3] (Dermis/hypodermis), in series [3] (Epidermis) and in series [3] (Stratum corneum) were 95.5, 2.7 and 1.8, respectively. In addition, the Solubility in series [4] came to 1300 µg/mL (≈ 4.52 mM).

Regarding `CNCCc1c[nH]c2ccc(C[C@H]3COC(=O)N3)cc12` [N-desmethyl zolmitriptan], the “5HT1B/1D potency, times that of the parent” value in series [5] is recorded as 2 to 6 times. Moreover, the “metabolite concentrations relative to zolmitriptan” value in series [2] (after zolmitriptan administration) was “about two-thirds”.

On to `CN(C)CCc1c[nH]c2ccc(C[C@H]3COC(=O)N3)cc12` [Zolmitriptan 10 mg oral, zolmitriptan], for which the AUC0-last is 108.6 ng·h/mL in series [2] (females (F)) and 84.4 ng·h/mL in series [2] (males (M)).
